# Measured values published in ChEMBL document CHEMBL1201862, “PubChem BioAssay data set” (2004).
# Active and inactive are the calls of the source. For most assays here, no stated cut-off is given here; in the data, actives have a measured IC50 and inactives only a lower limit.
# Assays:
# Format in all cases: functional
# [1] = target: T1, Mitochondrial peptide methionine sulfoxide reductase (Bos taurus, UniProt P54149); experiment: Absorbance-based biochemical high throughput dose response assay for activators of Methionine sulfoxide reductase A (MsrA).
# T1 sequence (P54149 whole entry): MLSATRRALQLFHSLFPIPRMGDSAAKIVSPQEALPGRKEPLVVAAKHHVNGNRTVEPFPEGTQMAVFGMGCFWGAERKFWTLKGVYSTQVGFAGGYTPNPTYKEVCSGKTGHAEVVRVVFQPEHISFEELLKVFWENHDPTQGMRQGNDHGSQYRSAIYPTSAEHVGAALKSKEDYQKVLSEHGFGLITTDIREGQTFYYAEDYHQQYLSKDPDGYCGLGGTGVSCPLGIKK
# [2] = M. tuberculosis H37Rv growth inhibitors, H37Rv strain (AID 1626)
# [3] = target: Ras and Rab interactor 1/Tyrosine-protein kinase ABL1 (Homo sapiens, UniProt P00519+Q13671);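 further: biochemical TR-FRET dose-response test measuring inhibition of binding between Rin1 and Abl proteins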
# [4] = target: T2, Sentrin-specific protease 8 (Homo sapiens, UniProt Q96LD8); experiment: inhibition of human SENP8 cleavage activity – biochemical, luminescence, SAR follow-up (AID 504501)
# T2 sequence (Q96LD8 whole entry): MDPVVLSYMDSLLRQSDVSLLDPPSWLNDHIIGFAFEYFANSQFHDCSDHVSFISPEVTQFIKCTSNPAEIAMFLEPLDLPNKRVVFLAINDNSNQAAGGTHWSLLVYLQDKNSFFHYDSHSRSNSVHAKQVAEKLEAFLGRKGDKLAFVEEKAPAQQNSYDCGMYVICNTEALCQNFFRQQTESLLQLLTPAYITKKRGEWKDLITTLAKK
# [5] = target: T3, Sentrin-specific protease 7 (Homo sapiens, UniProt Q9BQF6); experiment: inhibition of human SENP7 cleavage activity – biochemical, luminescence, SAR follow-up (AID 504497)
# T3 sequence (Q9BQF6 whole entry): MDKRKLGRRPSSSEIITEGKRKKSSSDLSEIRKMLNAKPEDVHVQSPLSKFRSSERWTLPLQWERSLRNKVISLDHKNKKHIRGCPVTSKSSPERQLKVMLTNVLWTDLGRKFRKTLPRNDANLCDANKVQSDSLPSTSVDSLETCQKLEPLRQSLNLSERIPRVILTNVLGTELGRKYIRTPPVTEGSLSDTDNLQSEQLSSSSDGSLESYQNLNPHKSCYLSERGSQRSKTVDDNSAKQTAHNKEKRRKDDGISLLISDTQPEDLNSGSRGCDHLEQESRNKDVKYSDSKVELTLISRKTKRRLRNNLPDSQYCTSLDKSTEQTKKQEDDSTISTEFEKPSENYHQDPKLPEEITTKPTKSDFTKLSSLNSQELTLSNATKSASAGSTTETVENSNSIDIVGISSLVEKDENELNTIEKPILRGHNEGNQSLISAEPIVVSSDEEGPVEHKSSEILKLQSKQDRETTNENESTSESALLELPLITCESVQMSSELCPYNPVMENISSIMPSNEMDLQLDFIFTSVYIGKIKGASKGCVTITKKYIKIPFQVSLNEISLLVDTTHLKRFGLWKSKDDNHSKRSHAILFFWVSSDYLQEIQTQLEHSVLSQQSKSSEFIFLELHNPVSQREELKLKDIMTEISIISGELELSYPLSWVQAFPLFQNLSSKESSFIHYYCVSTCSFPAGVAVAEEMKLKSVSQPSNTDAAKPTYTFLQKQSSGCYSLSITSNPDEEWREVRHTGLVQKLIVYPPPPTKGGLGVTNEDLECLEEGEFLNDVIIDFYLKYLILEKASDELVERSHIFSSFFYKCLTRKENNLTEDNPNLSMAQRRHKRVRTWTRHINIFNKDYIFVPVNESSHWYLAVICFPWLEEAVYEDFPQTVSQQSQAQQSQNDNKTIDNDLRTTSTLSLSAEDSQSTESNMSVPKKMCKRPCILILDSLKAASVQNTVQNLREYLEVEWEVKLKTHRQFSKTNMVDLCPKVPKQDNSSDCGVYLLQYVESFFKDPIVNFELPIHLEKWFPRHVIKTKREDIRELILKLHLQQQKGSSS
# Caspase-3 [6] = target: T4, Caspase-3 (Homo sapiens, UniProt P42574); experiment: SAR Analysis of small molecule inhibitors of Sentrin-specific proteases (SENPs) using a Caspase-3 Selectivity assay. [Related pubchem assays (depositor defined):AID2540, AID2599, AID434973, AID489001]
# T4 sequence (P42574 whole entry): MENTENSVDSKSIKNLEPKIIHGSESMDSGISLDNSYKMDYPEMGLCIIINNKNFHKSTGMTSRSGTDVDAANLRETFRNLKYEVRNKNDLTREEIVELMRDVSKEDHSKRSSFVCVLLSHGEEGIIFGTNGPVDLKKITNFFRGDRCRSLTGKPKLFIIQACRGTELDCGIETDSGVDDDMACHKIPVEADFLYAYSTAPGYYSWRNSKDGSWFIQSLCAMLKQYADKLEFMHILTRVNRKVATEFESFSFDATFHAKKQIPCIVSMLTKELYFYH
# [7] = target: T5, Sentrin-specific protease 6 (Homo sapiens, UniProt Q9GZR1); experiment: SAR Analysis of small molecule inhibitors of Sentrin-specific protease 6 (SENP6) using a Luminescent assay. [Related pubchem assays (depositor defined):AID2582, AID2599]
# T5 sequence (Q9GZR1 whole entry): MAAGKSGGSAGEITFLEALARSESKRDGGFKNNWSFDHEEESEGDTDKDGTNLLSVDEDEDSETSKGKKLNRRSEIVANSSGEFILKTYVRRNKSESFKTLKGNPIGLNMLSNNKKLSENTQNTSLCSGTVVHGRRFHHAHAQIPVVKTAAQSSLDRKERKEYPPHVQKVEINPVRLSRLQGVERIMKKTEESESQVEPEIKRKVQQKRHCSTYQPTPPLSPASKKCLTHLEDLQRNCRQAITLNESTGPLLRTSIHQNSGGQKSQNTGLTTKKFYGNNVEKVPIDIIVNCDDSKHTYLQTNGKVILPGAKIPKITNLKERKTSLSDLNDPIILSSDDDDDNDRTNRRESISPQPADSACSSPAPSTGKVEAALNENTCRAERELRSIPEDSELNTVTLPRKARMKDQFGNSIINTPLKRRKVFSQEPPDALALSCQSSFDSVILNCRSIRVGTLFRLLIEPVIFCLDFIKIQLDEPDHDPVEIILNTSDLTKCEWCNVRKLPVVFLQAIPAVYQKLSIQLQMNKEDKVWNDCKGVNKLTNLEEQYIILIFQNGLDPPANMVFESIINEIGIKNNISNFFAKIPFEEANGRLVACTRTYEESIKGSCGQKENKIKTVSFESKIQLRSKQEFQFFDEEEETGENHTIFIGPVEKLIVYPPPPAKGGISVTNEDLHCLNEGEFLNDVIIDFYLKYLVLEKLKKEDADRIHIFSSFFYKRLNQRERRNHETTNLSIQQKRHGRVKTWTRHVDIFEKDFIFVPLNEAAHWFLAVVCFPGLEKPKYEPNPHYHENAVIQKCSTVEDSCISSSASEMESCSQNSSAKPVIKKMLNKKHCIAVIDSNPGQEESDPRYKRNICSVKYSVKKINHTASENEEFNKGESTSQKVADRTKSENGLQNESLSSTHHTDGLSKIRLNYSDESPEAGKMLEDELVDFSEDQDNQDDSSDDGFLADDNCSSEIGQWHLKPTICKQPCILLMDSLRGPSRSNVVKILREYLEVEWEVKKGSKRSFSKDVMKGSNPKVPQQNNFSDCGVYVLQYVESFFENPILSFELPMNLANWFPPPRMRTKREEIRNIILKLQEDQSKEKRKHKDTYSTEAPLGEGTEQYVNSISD
# [8] = target: T5, Sentrin-specific protease 6; experiment: inhibition of human SENP6 catalytic domain – biochemical, luminescence, set 2, SAR follow-up (AID 588598)
# [9] = target: T2, Sentrin-specific protease 8; experiment: inhibition of sentrin protease 8 – biochemical, luminescence, set 2, SAR follow-up (AID 588601)
# Caspase-3 [10] = target: T4, Caspase-3; experiment: inhibition of recombinant caspase-3 activity – biochemical, luminescence, set 2, selectivity assay for SENP protease inhibitor project, SAR follow-up (AID 588599)
# [11] = target: T3, Sentrin-specific protease 7; experiment: inhibition of human SENP7 cleavage activity – biochemical, luminescence, set 2, SAR follow-up (AID 588600)
# [12] = target: T6, Apoptotic protease-activating factor 1 (Homo sapiens, UniProt O14727); experiment: SAR analysis of small molecule Activators of Apaf-1 in a Fluorescent assay.; details: read-out: EC50_Mean;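 further: caspase-3 cleavage of fluorogenic Rh110 DEVD substrate downstream of apoptosome activation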
# T6 sequence (O14727 whole entry): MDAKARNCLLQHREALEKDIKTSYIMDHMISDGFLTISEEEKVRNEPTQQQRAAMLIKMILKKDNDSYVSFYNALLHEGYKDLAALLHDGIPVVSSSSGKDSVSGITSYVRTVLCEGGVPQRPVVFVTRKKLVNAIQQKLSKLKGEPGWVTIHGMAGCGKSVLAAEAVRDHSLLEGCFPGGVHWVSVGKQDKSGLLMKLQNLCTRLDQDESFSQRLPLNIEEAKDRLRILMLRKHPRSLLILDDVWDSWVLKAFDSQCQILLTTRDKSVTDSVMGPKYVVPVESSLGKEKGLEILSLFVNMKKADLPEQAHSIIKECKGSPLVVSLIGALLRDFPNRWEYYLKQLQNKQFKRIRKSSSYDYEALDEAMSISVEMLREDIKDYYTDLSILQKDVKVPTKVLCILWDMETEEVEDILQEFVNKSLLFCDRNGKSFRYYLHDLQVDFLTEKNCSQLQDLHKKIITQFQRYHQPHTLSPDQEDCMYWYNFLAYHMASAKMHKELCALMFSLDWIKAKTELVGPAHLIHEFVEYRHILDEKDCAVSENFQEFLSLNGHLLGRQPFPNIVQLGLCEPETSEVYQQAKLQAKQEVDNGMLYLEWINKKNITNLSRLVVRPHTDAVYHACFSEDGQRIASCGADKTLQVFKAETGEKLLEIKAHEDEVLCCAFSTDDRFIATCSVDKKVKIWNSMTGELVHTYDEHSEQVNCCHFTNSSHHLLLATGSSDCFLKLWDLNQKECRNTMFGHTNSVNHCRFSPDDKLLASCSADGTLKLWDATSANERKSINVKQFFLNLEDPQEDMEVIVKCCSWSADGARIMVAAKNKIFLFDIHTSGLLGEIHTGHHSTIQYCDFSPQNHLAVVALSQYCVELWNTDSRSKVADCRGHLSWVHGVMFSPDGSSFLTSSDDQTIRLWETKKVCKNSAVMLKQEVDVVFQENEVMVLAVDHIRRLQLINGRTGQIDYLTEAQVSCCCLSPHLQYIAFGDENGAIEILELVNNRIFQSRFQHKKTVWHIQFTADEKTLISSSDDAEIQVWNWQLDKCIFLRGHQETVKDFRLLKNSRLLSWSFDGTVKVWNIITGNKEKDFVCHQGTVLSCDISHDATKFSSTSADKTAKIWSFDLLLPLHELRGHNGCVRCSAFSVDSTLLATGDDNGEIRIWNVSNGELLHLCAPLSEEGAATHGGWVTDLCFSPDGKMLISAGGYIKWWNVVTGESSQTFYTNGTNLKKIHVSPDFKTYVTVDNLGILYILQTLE
# Aurora kinase B = Aurora kinase B (Homo sapiens, UniProt Q96GD4)
# Aurora kinase A = target: T7, Aurora kinase A (Homo sapiens, UniProt O14965);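 further: value from the Navigating the Kinome kinase panel profiling, panel entry STK6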
# T7 sequence (O14965 whole entry): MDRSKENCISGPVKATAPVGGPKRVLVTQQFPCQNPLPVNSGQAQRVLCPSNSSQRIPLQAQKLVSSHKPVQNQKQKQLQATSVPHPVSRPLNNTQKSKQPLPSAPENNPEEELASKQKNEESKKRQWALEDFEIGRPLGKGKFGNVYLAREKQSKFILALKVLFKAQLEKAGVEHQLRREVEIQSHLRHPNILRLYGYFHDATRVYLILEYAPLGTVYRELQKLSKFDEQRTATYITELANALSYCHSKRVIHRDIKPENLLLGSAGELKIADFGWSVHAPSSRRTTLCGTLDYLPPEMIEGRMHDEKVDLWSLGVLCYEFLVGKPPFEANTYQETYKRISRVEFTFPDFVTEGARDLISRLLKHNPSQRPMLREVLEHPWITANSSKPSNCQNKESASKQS
# [13] = target: Vascular endothelial growth factor receptor 2 (Homo sapiens, UniProt P35968)
# Chain of Vascular endothelial growth factor receptor 2 (P35968 whole entry): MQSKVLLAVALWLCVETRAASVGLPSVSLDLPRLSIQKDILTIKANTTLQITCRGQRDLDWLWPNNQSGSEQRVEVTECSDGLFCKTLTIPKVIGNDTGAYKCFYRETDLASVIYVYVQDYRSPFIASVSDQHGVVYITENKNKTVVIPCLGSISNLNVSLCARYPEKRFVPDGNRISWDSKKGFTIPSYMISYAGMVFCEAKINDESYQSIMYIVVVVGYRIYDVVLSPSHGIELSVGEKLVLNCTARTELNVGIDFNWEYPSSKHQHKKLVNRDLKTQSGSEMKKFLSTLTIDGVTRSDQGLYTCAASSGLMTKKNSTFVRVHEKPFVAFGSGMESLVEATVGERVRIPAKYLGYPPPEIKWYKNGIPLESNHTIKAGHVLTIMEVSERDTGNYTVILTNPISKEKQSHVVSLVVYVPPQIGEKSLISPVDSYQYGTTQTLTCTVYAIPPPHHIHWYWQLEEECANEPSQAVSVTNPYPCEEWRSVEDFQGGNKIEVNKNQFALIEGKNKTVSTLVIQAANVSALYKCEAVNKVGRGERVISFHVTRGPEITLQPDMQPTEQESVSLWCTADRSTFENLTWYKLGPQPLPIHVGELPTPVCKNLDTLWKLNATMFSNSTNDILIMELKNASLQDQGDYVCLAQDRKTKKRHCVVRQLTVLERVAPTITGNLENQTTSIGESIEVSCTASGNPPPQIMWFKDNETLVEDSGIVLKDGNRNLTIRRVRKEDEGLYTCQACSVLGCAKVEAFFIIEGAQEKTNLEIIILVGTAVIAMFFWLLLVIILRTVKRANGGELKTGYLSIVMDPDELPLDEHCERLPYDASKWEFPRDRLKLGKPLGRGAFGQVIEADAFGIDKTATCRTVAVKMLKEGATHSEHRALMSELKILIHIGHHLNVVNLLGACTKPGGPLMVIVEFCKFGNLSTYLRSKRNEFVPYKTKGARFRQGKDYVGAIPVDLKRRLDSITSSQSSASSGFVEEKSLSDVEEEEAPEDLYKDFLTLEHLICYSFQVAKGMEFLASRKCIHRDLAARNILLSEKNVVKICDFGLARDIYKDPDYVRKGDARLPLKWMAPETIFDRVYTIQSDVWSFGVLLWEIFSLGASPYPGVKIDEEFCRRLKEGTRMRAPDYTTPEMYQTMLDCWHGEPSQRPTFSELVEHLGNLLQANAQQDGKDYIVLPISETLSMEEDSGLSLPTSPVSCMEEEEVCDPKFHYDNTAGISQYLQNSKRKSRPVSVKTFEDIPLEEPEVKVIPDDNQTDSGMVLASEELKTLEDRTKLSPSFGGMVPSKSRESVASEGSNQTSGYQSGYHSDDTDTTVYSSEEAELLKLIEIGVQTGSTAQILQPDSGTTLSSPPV
# Chain of Ras and Rab interactor 1/Tyrosine-protein kinase ABL1 (P00519 whole entry): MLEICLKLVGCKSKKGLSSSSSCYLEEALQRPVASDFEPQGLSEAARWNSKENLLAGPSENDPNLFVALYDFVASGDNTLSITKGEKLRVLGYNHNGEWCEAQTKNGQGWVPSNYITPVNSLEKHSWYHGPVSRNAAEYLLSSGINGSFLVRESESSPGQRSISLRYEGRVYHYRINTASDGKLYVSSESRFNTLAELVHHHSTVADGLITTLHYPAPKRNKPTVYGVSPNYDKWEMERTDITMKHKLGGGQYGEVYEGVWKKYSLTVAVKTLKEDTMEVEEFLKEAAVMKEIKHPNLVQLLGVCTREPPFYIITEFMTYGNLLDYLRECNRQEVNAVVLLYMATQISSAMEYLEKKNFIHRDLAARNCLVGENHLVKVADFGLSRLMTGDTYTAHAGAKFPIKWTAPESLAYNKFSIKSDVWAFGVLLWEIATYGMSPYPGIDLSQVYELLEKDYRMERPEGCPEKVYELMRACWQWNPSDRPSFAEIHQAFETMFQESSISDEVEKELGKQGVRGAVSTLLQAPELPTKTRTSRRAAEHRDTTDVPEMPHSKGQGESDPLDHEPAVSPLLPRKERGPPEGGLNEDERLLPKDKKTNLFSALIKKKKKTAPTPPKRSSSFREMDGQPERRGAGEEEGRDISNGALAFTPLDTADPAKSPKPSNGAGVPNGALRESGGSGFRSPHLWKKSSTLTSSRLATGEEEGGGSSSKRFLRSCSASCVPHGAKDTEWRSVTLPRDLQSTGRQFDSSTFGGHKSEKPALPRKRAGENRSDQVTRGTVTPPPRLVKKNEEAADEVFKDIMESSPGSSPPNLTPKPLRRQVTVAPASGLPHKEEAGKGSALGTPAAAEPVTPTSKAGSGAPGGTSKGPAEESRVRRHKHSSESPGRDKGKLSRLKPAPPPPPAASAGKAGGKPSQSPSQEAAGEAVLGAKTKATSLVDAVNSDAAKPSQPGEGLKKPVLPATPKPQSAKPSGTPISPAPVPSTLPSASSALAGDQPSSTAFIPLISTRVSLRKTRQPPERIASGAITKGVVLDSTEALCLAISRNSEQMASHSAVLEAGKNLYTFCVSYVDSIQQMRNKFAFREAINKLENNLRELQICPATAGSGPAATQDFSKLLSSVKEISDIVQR
# Chain of Ras and Rab interactor 1/Tyrosine-protein kinase ABL1 (Q13671 whole entry): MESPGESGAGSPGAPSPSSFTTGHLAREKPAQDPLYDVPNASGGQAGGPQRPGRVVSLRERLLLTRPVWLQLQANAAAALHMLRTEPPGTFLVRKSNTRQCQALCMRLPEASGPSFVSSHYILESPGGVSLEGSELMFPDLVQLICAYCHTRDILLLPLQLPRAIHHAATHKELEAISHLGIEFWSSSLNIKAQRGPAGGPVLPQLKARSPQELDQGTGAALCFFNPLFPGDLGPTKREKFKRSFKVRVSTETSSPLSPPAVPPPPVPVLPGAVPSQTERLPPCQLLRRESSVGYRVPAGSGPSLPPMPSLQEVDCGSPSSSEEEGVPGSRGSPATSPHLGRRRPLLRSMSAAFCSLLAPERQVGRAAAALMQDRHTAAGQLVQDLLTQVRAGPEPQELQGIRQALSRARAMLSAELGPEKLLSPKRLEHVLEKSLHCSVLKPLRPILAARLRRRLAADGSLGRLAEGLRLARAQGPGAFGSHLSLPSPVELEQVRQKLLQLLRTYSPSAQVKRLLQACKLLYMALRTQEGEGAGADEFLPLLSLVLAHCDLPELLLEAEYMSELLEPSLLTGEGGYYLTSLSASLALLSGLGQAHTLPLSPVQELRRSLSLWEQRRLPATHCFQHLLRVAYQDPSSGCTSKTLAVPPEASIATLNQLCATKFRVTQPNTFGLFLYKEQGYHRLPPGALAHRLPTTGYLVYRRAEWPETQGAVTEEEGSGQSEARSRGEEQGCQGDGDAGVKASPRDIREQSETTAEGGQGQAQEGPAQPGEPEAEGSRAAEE
# Chain of Aurora kinase B (Q96GD4 whole entry): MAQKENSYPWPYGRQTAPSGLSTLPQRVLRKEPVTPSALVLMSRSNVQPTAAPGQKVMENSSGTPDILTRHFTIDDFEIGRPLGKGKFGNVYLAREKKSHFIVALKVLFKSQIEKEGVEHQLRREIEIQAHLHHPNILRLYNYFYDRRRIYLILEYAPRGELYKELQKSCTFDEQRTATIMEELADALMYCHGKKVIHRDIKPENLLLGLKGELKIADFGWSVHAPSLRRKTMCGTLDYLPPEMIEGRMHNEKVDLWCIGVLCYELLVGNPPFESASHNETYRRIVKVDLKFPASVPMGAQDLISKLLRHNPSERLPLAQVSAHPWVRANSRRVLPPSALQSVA
structure (smiles),measurement,setting,value
CCOc1ccc(NC(C(=O)Nc2cccc(C(C)=O)c2)c2ccccc2)cc1 (stereo not drawn),EC50,[1],> 104 µM (inactive)
same,IC50,[2],> 100 µM (active)
CCC(C)(C)n1nnnc1C(c1cccnc1)N1CCCc2ccccc21 (stereo not drawn),IC50,[3],6.9 µM (active)
CN(C)S(=O)(=O)c1ccc2nc(NC(=O)c3c(F)cccc3F)sc2c1,IC50,[4],> 99 µM (inactive)
same,IC50,[5],> 99 µM (inactive)
same,IC50,Caspase-3 [6],> 99 µM (inactive)
same,IC50,[7],> 99 µM (inactive)
O=C(Nc1nc2ccc(Cl)cc2s1)c1sccc1Cl,IC50,[8],15.4 µM (active)
same,IC50,[9],9.04 µM (active)
same,IC50,Caspase-3 [10],0.755 µM (active)
same,IC50,[4],0.77 µM (active)
same,IC50,[5],0.91 µM (active)
same,IC50,Caspase-3 [6],0.73 µM (active)
same,IC50,[7],0.78 µM (active)
same,IC50,[11],6.06 µM (active)
O=C(N/N=C\c1c[nH]c2ccccc12)c1cccs1,IC50,[8],43.3 µM (active)
same,IC50,[9],40.8 µM (active)
same,IC50,Caspase-3 [10],75.5 µM (active)
same,IC50,[11],34.4 µM (active)
COc1cc(N2CC(C(=O)O)CC2=O)c(OC)cc1Cl (stereo not drawn),EC50,[12],> 100 µM (inactive)
CCCS(=O)(=O)Nc1ccc2c(c1)C(=NO)c1ccccc1-2,Ki,Aurora kinase B,0.01 µM (active)
same,Ki,Aurora kinase A,2 µM (active)
same,Ki,[13],1 µM (active)
